For 15 molecules, activation and IC50 results are on record in patent publication US8283353B2, “Fused ring compound and use thereof” (Takeda Pharmaceutical Company Limited, priority 2009, dated 2012).

For one assay, the target named is T1, human PPARγ (Homo sapiens, UniProt P37231).
T1 construct: expressed in transfected cells
T1 sequence (P37231 1-477 isoform P37231-2): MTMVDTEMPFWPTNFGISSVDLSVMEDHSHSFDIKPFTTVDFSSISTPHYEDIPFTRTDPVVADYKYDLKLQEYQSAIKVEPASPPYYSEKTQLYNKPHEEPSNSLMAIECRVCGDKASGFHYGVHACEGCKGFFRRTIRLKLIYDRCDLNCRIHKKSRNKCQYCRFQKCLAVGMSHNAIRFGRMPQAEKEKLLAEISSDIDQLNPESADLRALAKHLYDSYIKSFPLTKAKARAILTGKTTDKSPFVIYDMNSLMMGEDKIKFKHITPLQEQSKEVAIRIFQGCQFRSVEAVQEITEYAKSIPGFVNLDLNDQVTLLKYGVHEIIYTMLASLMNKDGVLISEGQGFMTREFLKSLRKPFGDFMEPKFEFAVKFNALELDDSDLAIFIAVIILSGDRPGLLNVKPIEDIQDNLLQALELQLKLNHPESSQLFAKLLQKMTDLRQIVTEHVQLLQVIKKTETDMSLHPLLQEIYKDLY
T1 sequence (P19793 1-462 partner): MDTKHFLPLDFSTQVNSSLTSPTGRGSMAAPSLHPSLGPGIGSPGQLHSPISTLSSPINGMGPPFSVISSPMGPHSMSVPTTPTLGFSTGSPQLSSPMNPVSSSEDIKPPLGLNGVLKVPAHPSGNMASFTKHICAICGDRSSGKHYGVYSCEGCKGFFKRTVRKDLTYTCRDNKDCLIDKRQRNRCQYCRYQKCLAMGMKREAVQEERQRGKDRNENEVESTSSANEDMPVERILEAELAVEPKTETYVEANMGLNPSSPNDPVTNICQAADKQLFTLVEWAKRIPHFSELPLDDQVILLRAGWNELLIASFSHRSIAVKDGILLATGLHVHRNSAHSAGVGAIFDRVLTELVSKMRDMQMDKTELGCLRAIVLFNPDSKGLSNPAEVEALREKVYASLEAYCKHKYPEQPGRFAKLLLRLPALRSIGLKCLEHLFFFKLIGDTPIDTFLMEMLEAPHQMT
Put plainly: PPARγ agonistic activity: luciferase reporter assay in PPARγ:RXRα:4ERPP/CHO-K1 cells. In kind it is cell-based. Conditions: CHO-K1, test compound 10^−6 M; luciferase activity of control compound X (1 μM) = 100%, non-administration group = 0%. An outline of the steps: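 CHO-K1 cells stably carrying hPPARγ/RXRα and a 4ERPP luciferase reporter, dosed with test compound for 1 day at 37 °C in Ham's F12 with 0.1% fatty acid-free BSA. Luciferase read by luminescence; activity given as % of 1 μM control compound X (100%) versus untreated (0%).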

For another assay, the target named is T2, human AT1 receptor (Homo sapiens, UniProt P30556).
T2 construct: expressed in transfected cells; membrane fraction
T2 sequence (P30556 1-359): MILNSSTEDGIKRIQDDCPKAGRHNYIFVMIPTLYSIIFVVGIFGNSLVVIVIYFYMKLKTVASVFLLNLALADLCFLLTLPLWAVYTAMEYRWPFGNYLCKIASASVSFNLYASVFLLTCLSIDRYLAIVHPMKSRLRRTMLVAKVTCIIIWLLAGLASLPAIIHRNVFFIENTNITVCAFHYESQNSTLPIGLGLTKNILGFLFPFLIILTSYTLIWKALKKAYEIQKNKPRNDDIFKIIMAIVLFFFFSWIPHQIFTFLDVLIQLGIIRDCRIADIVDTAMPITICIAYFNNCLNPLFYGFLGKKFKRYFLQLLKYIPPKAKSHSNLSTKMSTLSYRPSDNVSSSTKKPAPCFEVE
Put plainly: AT1 receptor antagonistic activity: [125I]-angiotensin II binding assay on human AT1 receptor-expressing CHO-K1 cellular membrane fraction. Conditions: 22.5 pM [125I]-angiotensin II, 1 hr room temperature. An outline of the steps: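 Competition binding used radiolabelled angiotensin II on stably transfected CHO-K1 membrane fractions in Tris pH 7.4/MgCl2 buffer, optionally containing 0.3 mg/mL fatty acid-free BSA, 1 hr at room temperature. Filtration onto GF/C separated bound tracer, and nonspecific binding was measured with candesartan.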

The structures appear in SMILES notation.

With `C=CC(O)CO[C@H]1CC[C@H](n2c(=O)c(Cc3ccc(-c4ccccc4-c4noc(=O)[nH]4)cc3)c(CCC)n3ncnc32)CC1` (stereo partly drawn) [Example 331, 4-{trans-4-[(2-hydroxybut-3-en-1-yl)oxy]cyclohexyl}-6-{[2′-(5-oxo-4,5-dihydro-1,2,4-oxadiazol-3-yl)biphenyl-4-yl]methyl}-7-propyl[1,2,4]triazolo[1,5-a]pyrimidin-5(4H)-one], at human PPARγ, the activation at 1 µM was determined as 33%. Moreover, the IC50 at human AT1 receptor was determined as 2 nM.
Regarding `CCCc1c(Cc2ccc(-c3ccccc3-c3noc(=O)[nH]3)cc2)c(=O)n([C@H]2CC[C@H](OCC(C)(O)C(F)(F)F)CC2)c2ncnn12` (stereo partly drawn) [Example 335, 6-{[2′-(5-oxo-4,5-dihydro-1,2,4-oxadiazol-3-yl)biphenyl-4-yl]methyl}-7-propyl-4-[trans-4-(3,3,3-trifluoro-2-hydroxy-2-methylpropoxy)cyclohexyl][1,2,4]triazolo[1,5-a]pyrimidin-5(4H)-one], at human PPARγ, the activation at 1 µM was determined as 19%. In addition, the half-inhibitory concentration (IC50) at human AT1 receptor turned out to be 1.9 nM.
Molecule `CCCc1c(Cc2ccc(-c3ccccc3-c3noc(=O)[nH]3)cc2)c(=O)n([C@H]2CC[C@H](OCC(C)(O)CF)CC2)c2ncnn12` (stereo partly drawn) [Example 337, 4-[trans-4-(3-fluoro-2-hydroxy-2-methylpropoxy)cyclohexyl]-6-{[2′-(5-oxo-4,5-dihydro-1,2,4-oxadiazol-3-yl)biphenyl-4-yl]methyl}-7-propyl[1,2,4]triazolo[1,5-a]pyrimidin-5(4H)-one] gave an activation at 1 µM at human PPARγ of 24%. This molecule also displayed a 50% inhibitory concentration (IC50) on human AT1 receptor of 1.9 nM.
On the same counts, the results for `CCCc1c(Cc2ccc(-c3ccccc3-c3noc(=O)[nH]3)cc2)c(=O)n([C@H]2CC[C@H](OCC3(O)CCC3)CC2)c2ncnn12` [Example 338, 4-{trans-4-[(1-hydroxycyclobutyl)methoxy]cyclohexyl}-6-{[2′-(5-oxo-4,5-dihydro-1,2,4-oxadiazol-3-yl)biphenyl-4-yl]methyl}-7-propyl[1,2,4]triazolo[1,5-a]pyrimidin-5(4H)-one] are 36% and 1.6 nM.
`CCCc1c(Cc2ccc(-c3ccccc3-c3noc(=O)[nH]3)cc2)c(=O)n([C@H]2CC[C@H](OCC(O)(CF)CF)CC2)c2ncnn12` [Example 339, 4-{trans-4-[3-fluoro-2-(fluoromethyl)-2-hydroxypropoxy]cyclohexyl}-6-{[2′-(5-oxo-4,5-dihydro-1,2,4-oxadiazol-3-yl)biphenyl-4-yl]methyl}-7-propyl[1,2,4]triazolo[1,5-a]pyrimidin-5(4H)-one] displayed an activation at 1 µM on human PPARγ of 27%. Further, the 50% inhibitory concentration (IC50) at human AT1 receptor came out at 1.4 nM.
For `CCCc1c(Cc2ccc(-c3ccccc3-c3noc(=O)[nH]3)cc2)c(=O)n([C@H]2CC[C@H](OCC(C)(O)CC)CC2)c2ncnn12` (stereo partly drawn) [Example 345, 4-[trans-4-(2-hydroxy-2-methylbutoxy)cyclohexyl]-6-{[2′-(5-oxo-4,5-dihydro-1,2,4-oxadiazol-3-yl)biphenyl-4-yl]methyl}-7-propyl[1,2,4]triazolo[1,5-a]pyrimidin-5(4H)-one], in that order: 18% and 2.1 nM.
`CCCc1c(Cc2ccc(-c3ccccc3-c3noc(=O)[nH]3)cc2)c(=O)n([C@H]2CC[C@H](OC(CC)C(C)(C)O)CC2)c2ncnn12` (stereo partly drawn) [Example 348, 4-[trans-4-(1-ethyl-2-hydroxy-2-methylpropoxy)cyclohexyl]-6-{[2′-(5-oxo-4,5-dihydro-1,2,4-oxadiazol-3-yl)biphenyl-4-yl]methyl}-7-propyl[1,2,4]triazolo[1,5-a]pyrimidin-5(4H)-one]: at human PPARγ, the activation at 1 µM came to 19%. This molecule displayed a 50% inhibitory concentration (IC50) at human AT1 receptor of 1.9 nM.
`CCCc1c(Cc2ccc(-c3ccccc3-c3noc(=O)[nH]3)cc2)c(=O)n([C@H]2CC[C@H](OCC(O)C(F)F)CC2)c2ncnn12` (stereo partly drawn) [Example 352, 4-[trans-4-(3,3-difluoro-2-hydroxypropoxy)cyclohexyl]-6-{[2′-(5-oxo-4,5-dihydro-1,2,4-oxadiazol-3-yl)biphenyl-4-yl]methyl}-7-propyl[1,2,4]triazolo[1,5-a]pyrimidin-5(4H)-one]: the activation at 1 µM at human PPARγ turned out to be 20%. This molecule also had a concentration for half-maximal inhibition (IC50) on human AT1 receptor of 1.4 nM.
On the same counts, the results for `CCCc1c(Cc2ccc(-c3ccccc3-c3noc(=O)[nH]3)cc2)c(=O)n([C@H]2CC[C@H](OCC(C)(O)CF)CC2)c2nc(C)nn12` (stereo partly drawn) [Example 354, 4-[trans-4-(3-fluoro-2-hydroxy-2-methylpropoxy)cyclohexyl]-2-methyl-6-{[2′-(5-oxo-4,5-dihydro-1,2,4-oxadiazol-3-yl)biphenyl-4-yl]methyl}-7-propyl[1,2,4]triazolo[1,5-a]pyrimidin-5(4H)-one] are 18% and 1.2 nM.
For `CCCc1c(Cc2ccc(-c3ccccc3-c3noc(=O)[nH]3)cc2F)c(=O)n([C@H]2CC[C@H](OC(CC)C(C)(C)O)CC2)c2ncnn12` (stereo partly drawn) [Example 355, 4-[trans-4-(1-ethyl-2-hydroxy-2-methylpropoxy)cyclohexyl]-6-{[3-fluoro-2′-(5-oxo-4,5-dihydro-1,2,4-oxadiazol-3-yl)biphenyl-4-yl]methyl}-7-propyl[1,2,4]triazolo[1,5-a]pyrimidin-5(4H)-one], at human PPARγ, the activation at 1 µM turned out to be 25%. At human AT1 receptor, this molecule had a half-inhibitory concentration (IC50) of 1.7 nM.
For `CCCc1c(Cc2ccc(-c3ccccc3-c3noc(=O)[nH]3)cc2F)c(=O)n([C@H]2CC[C@H](OCC(C)(C)O)CC2)c2nc(C)nn12` [Example 360, 6-{[3-fluoro-2′-(5-oxo-4,5-dihydro-1,2,4-oxadiazol-3-yl)biphenyl-4-yl]methyl}-4-[trans-4-(2-hydroxy-2-methylpropoxy)cyclohexyl]-2-methyl-7-propyl[1,2,4]triazolo[1,5-a]pyrimidin-5(4H)-one], in that order: 19% and 1.7 nM.
For the molecule `CCCc1c(Cc2ccc(-c3ccccc3-c3noc(=O)[nH]3)cc2F)c(=O)n([C@H]2CC[C@H](OC3(C(C)(C)O)CC3)CC2)c2ncnn12` [Example 362, 6-{[3-fluoro-2′-(5-oxo-4,5-dihydro-1,2,4-oxadiazol-3-yl)biphenyl-4-yl]methyl}-4-(trans-4-{[1-(1-hydroxy-1-methylethyl)cyclopropyl]oxy}cyclohexyl)-7-propyl[1,2,4]triazolo[1,5-a]pyrimidin-5(4H)-one], on human PPARγ, the activation at 1 µM amounted to 26%. For the same molecule, the IC50 at human AT1 receptor is 2.5 nM.
On the same counts, the results for `CCCc1c(Cc2ccc(-c3ccccc3-c3noc(=O)[nH]3)cc2)c(=O)n([C@H]2CC[C@H](OC3(C(C)(C)O)CC3)CC2)c2ncnn12` [Example 363, 4-(trans-4-{[1-(1-hydroxy-1-methylethyl)cyclopropyl]oxy}cyclohexyl)-6-{[2′-(5-oxo-4,5-dihydro-1,2,4-oxadiazol-3-yl)biphenyl-4-yl]methyl}-7-propyl[1,2,4]triazolo[1,5-a]pyrimidin-5(4H)-one] are 22% and 2.3 nM.
At human PPARγ, `CCCc1c(Cc2ccc(-c3ccccc3-c3noc(=O)[nH]3)cc2F)c(=O)n([C@H]2CC[C@H](OC(C)C(O)(CF)CF)CC2)c2ncnn12` (stereo partly drawn) [Example 364, 4-{trans-4-[3-fluoro-2-(fluoromethyl)-2-hydroxy-1-methylpropoxy]cyclohexyl}-6-{[3-fluoro-2′-(5-oxo-4,5-dihydro-1,2,4-oxadiazol-3-yl)biphenyl-4-yl]methyl}-7-propyl[1,2,4]triazolo[1,5-a]pyrimidin-5(4H)-one] registered an activation at 1 µM of 29%. For the same molecule, the IC50 on human AT1 receptor turned out to be 2.8 nM.
In the case of `CCCc1c(Cc2ccc(-c3ccccc3-c3noc(=O)[nH]3)cc2F)c(=O)n([C@H]2C[C@H](OCC(C)(C)O)C2)c2ncnn12` [Example 367, 6-{[3-fluoro-2′-(5-oxo-4,5-dihydro-1,2,4-oxadiazol-3-yl)biphenyl-4-yl]methyl}-4-[trans-3-(2-hydroxy-2-methylpropoxy)cyclobutyl]-7-propyl[1,2,4]triazolo[1,5-a]pyrimidin-5(4H)-one], the activation at 1 µM on human PPARγ stood at 25%. The same molecule showed a half-inhibitory concentration (IC50) at human AT1 receptor of 2.2 nM.

The IC50 is the concentration that inhibits the measured activity by half. High values mean a need for much substance, low ones inhibition by little substance.
